Experimental data taken from patent publication US20030201224A1, “Microbial consortium for the biodegradation of dithiocarbamates” (priority 2002, published 2003).
Where two headings read alike, the source gives them in different places.

Key:
consortium [1] = experiment: Degradation of other N-alkyl dithiocarbamates by the consortium (1000 ml bioreactor); conditions: pH 7.2, 20-27° C.
Experimental: A 1000 ml bioreactor containing the synthetic medium (described above) has been inoculated with the consortium density of approximately 1.1×10^7 ml. The initial pH value was 7.2 and the temperature varied between 20-27° C. Dithiocarbamate concentration was measured spectrophometrically by complexing with cupric acetate and measuring the absorbance at 430 nm.

microbial consortium = conditions: soil
Experimental: One soil environment was inoculated with approximately 1.2×10^7 consortium members/g soil while the other remained uninoculated. Nitrogen and phosphorus was added to both systems. The initial soil pH was 6.8 and the temperature varied from 18° C. to 27° C. Water was added to maintain the dry weight at about 30%. Each soil system was mixed weekly to provide aeration.

consortium [2] = conditions: within 72 hour; waste wash-water about 1100 ppm SDM and dilution at 500 ppm, pH 7.8; 20% inoculum of 72 h consortium
Experimental: The sample, and a dilution of it at 500 ppm and pH 7.8, was inoculated with a 20% (VN) amount of a 72 h consortium. A control without inoculation was included.

CCCN(CCC)C(=S)[S-].[Na+] [DiPropyl Dithiocarbamate, Sodium Dipropyl dithiocarbamates]
% degradation (percent loss over the abiotic Control) (consortium [1]; time 0 h): 3.99%
% degradation (percent loss over the abiotic Control) (consortium [1]; time 0.5 h): 3.87%
% degradation (percent loss over the abiotic Control) (consortium [1]; time 1.5 h): 4.21%
% degradation (percent loss over the abiotic Control) (consortium [1]; time 4 h): 3.56%
% degradation (percent loss over the abiotic Control) (consortium [1]; time 5 h): 3.49%
% degradation (percent loss over the abiotic Control) (consortium [1]; time 7 h): 4.37%
% degradation (percent loss over the abiotic Control) (consortium [1]; time 27 h): 7.82%
% degradation (percent loss over the abiotic Control) (consortium [1]; time 51 h): 9.43%
% degradation (percent loss over the abiotic Control) (consortium [1]; time 73 h): 11.24%
% degradation (percent loss over the abiotic Control) (consortium [1]; time 96 h): 14.56%

CN(C)C(=S)[S-].[Na+] [SDM, Sodium dimethyl dithiocarbamate]
PERCENT degradation of SDM (microbial consortium; 100 mg SDM per kg soil, 1 d): 1.6%
PERCENT degradation of SDM (microbial consortium; 100 mg SDM per kg soil, 3 d): 18.3%
PERCENT degradation of SDM (microbial consortium; 100 mg SDM per kg soil, 7 d): 50.2%
PERCENT degradation of SDM (microbial consortium; 500 mg SDM per kg soil, 1 d): 6.2%
PERCENT degradation of SDM (microbial consortium; 500 mg SDM per kg soil, 3 d): 22.6%
PERCENT degradation of SDM (microbial consortium; 500 mg SDM per kg soil, 7 d): 63%
PERCENT degradation of SDM (microbial consortium; 1000 mg SDM per kg soil, 1 d): 4.8%
PERCENT degradation of SDM (microbial consortium; 1000 mg SDM per kg soil, 3 d): 16.3%
PERCENT degradation of SDM (microbial consortium; 1000 mg SDM per kg soil, 7 d): 39.7%
PERCENT degradation of SDM (microbial consortium; 1000 mg SDM per kg soil, 10 d): 48%
PERCENT degradation of SDM (microbial consortium; 1000 mg SDM per kg soil, 14 d): 72%
PERCENT degradation of SDM (microbial consortium; 1000 mg SDM per kg soil, 20 d): 76%
PERCENT degradation of SDM (microbial consortium; 2000 mg SDM per kg soil, 1 d): 3.9%
PERCENT degradation of SDM (microbial consortium; 2000 mg SDM per kg soil, 3 d): 12.4%
PERCENT degradation of SDM (microbial consortium; 2000 mg SDM per kg soil, 7 d): 26.7%
PERCENT degradation of SDM (microbial consortium; 2000 mg SDM per kg soil, 10 d): 32.1%
PERCENT degradation of SDM (microbial consortium; 2000 mg SDM per kg soil, 14 d): 47.6%
PERCENT degradation of SDM (microbial consortium; 2000 mg SDM per kg soil, 20 d): 54%
PERCENT degradation of SDM (microbial consortium; 2000 mg SDM per kg soil, 28 d): 58%
PERCENT degradation of SDM (microbial consortium; 5000 mg SDM per kg soil, 1 d): 5.2%
PERCENT degradation of SDM (microbial consortium; 5000 mg SDM per kg soil, 3 d): 3.1%
PERCENT degradation of SDM (microbial consortium; 5000 mg SDM per kg soil, 7 d): 2.3%
PERCENT degradation of SDM (microbial consortium; 5000 mg SDM per kg soil, 10 d): 1.8%
PERCENT degradation of SDM (microbial consortium; 5000 mg SDM per kg soil, 14 d): 3.6%
PERCENT degradation of SDM (microbial consortium; 5000 mg SDM per kg soil, 20 d): 1.8%
PERCENT degradation of SDM (microbial consortium; 5000 mg SDM per kg soil, 28 d): 3.2%
SDM degraded by the consortium (consortium [2]): ~100%
% degradation (percent loss over the abiotic Control) (consortium [1]; time 0.5 h): 8.1%
% degradation (percent loss over the abiotic Control) (consortium [1]; time 1.5 h): 9.5%
% degradation (percent loss over the abiotic Control) (consortium [1]; time 4 h): 12.3%
% degradation (percent loss over the abiotic Control) (consortium [1]; time 5 h): 12.1%
% degradation (percent loss over the abiotic Control) (consortium [1]; time 7 h): 27.1%
% degradation (percent loss over the abiotic Control) (consortium [1]; time 27 h): 61.4%
% degradation (percent loss over the abiotic Control) (consortium [1]; time 51 h): 77.8%
% degradation (percent loss over the abiotic Control) (consortium [1]; time 73 h): 88.7%
% degradation (percent loss over the abiotic Control) (consortium [1]; time 96 h): 97.5%

CCN(CC)C(=S)S [Diethyl Dithiocarbamate, sodium diethyl dithiocarbamate]
% degradation (percent loss over the abiotic Control) (consortium [1]; time 0 h): 3.28%
% degradation (percent loss over the abiotic Control) (consortium [1]; time 0.5 h): 2.80%
% degradation (percent loss over the abiotic Control) (consortium [1]; time 1.5 h): 8.78%
% degradation (percent loss over the abiotic Control) (consortium [1]; time 4 h): 8.18%
% degradation (percent loss over the abiotic Control) (consortium [1]; time 5 h): 13.29%
% degradation (percent loss over the abiotic Control) (consortium [1]; time 7 h): 15.01%
% degradation (percent loss over the abiotic Control) (consortium [1]; time 27 h): 18.00%
% degradation (percent loss over the abiotic Control) (consortium [1]; time 51 h): 21.00%
% degradation (percent loss over the abiotic Control) (consortium [1]; time 73 h): 23.00%
% degradation (percent loss over the abiotic Control) (consortium [1]; time 96 h): 25.07%

CCCCN(CCCC)C(=S)[S-].[Na+] [Dibutyl Dithiocarbamate, Sodium Dibutyl dithiocarbamates]
% degradation (percent loss over the abiotic Control) (consortium [1]; time 0 h): 4.44%
% degradation (percent loss over the abiotic Control) (consortium [1]; time 0.5 h): 4.70%
% degradation (percent loss over the abiotic Control) (consortium [1]; time 1.5 h): 4.10%
% degradation (percent loss over the abiotic Control) (consortium [1]; time 4 h): 3.81%
% degradation (percent loss over the abiotic Control) (consortium [1]; time 5 h): 3.98%
% degradation (percent loss over the abiotic Control) (consortium [1]; time 7 h): 4.12%
% degradation (percent loss over the abiotic Control) (consortium [1]; time 27 h): 6.11%
% degradation (percent loss over the abiotic Control) (consortium [1]; time 51 h): 6.66%
% degradation (percent loss over the abiotic Control) (consortium [1]; time 73 h): 7.93%
% degradation (percent loss over the abiotic Control) (consortium [1]; time 96 h): 9.46%
